± gives the expanded uncertainty stated by the source.
Details: 358.16 K, Fluid (supercritical or subcritical phases), Vibrating tube method

FC(F)=C(F)C(F)(F)F [hexafluoropropene]
Details | mass density [kg/m3]
6.7 kPa | 0.18 ± 0.03
7.2 kPa | 0.21 ± 0.03
7.5 kPa | 0.23 ± 0.03
7.7 kPa | 0.26 ± 0.03
8.5 kPa | 0.27 ± 0.03
8.8 kPa | 0.31 ± 0.03
9.2 kPa | 0.32 ± 0.03
9.8 kPa | 0.34 ± 0.03
12.4 kPa | 0.45 ± 0.03
13.4 kPa | 0.5 ± 0.03
14.5 kPa | 0.6 ± 0.03
15.5 kPa | 0.63 ± 0.03
16.5 kPa | 0.69 ± 0.03
17.6 kPa | 0.76 ± 0.03
19.6 kPa | 0.84 ± 0.03
20.7 kPa | 0.88 ± 0.03
21.7 kPa | 0.92 ± 0.03
22.7 kPa | 1.01 ± 0.03
23.9 kPa | 1.07 ± 0.03
25.9 kPa | 1.13 ± 0.03
26.9 kPa | 1.2 ± 0.03
27.9 kPa | 1.24 ± 0.03
29 kPa | 1.31 ± 0.03
30 kPa | 1.37 ± 0.03
31 kPa | 1.42 ± 0.03
32 kPa | 1.45 ± 0.03
33 kPa | 1.5 ± 0.03
34 kPa | 1.62 ± 0.03
35.1 kPa | 1.63 ± 0.03
36.1 kPa | 1.72 ± 0.03
39.1 kPa | 1.8 ± 0.03
40.1 kPa | 1.85 ± 0.03
41.2 kPa | 1.9 ± 0.03
42.2 kPa | 1.99 ± 0.03
45.3 kPa | 2.13 ± 0.03
52.2 kPa | 2.54 ± 0.03
58.8 kPa | 2.84 ± 0.03
65.5 kPa | 3.31 ± 0.03
72.2 kPa | 3.58 ± 0.03
79 kPa | 3.91 ± 0.03
85.8 kPa | 4.34 ± 0.03
92.6 kPa | 4.61 ± 0.03
99.4 kPa | 4.96 ± 0.03
115.5 kPa | 5.84 ± 0.03
124.6 kPa | 6.23 ± 0.03
133.8 kPa | 6.76 ± 0.03
142.9 kPa | 7.23 ± 0.03
152 kPa | 7.73 ± 0.04
161.1 kPa | 8.2 ± 0.04
170.1 kPa | 8.69 ± 0.04
179.2 kPa | 9.15 ± 0.04
188.3 kPa | 9.64 ± 0.04
197.2 kPa | 10.14 ± 0.04
201.8 kPa | 10.33 ± 0.04
215.2 kPa | 11.03 ± 0.04
228.6 kPa | 11.76 ± 0.04
241.9 kPa | 12.39 ± 0.04
255.2 kPa | 13.18 ± 0.04
268.5 kPa | 13.87 ± 0.04
281.6 kPa | 14.57 ± 0.04
295.2 kPa | 15.37 ± 0.04
308.9 kPa | 16.07 ± 0.04
323.1 kPa | 16.83 ± 0.04
337.5 kPa | 17.58 ± 0.04
352.1 kPa | 18.44 ± 0.04
366.8 kPa | 19.21 ± 0.04
381.5 kPa | 19.95 ± 0.04
396.2 kPa | 20.78 ± 0.04
411 kPa | 21.59 ± 0.04
427.6 kPa | 22.57 ± 0.05
444 kPa | 23.52 ± 0.05
460.4 kPa | 24.33 ± 0.05
476.7 kPa | 25.35 ± 0.05
492.9 kPa | 26.26 ± 0.05
509.2 kPa | 27.13 ± 0.05
525.3 kPa | 28.12 ± 0.05
541.5 kPa | 29.02 ± 0.05
557.6 kPa | 29.96 ± 0.05
575.1 kPa | 31 ± 0.05
592.7 kPa | 31.99 ± 0.05
610.1 kPa | 32.94 ± 0.06
627.5 kPa | 34 ± 0.06
645.1 kPa | 35.06 ± 0.06
663.8 kPa | 36.18 ± 0.06
682.3 kPa | 37.25 ± 0.06
700.8 kPa | 38.41 ± 0.06
719.1 kPa | 39.53 ± 0.06
737.3 kPa | 40.62 ± 0.06
755.2 kPa | 41.68 ± 0.07
773.2 kPa | 42.77 ± 0.07
791.1 kPa | 43.9 ± 0.07
808.6 kPa | 44.92 ± 0.07
843.9 kPa | 47.16 ± 0.07
861.2 kPa | 48.3 ± 0.07
878.4 kPa | 49.34 ± 0.08
895.4 kPa | 50.38 ± 0.08
912.3 kPa | 51.52 ± 0.08
929.2 kPa | 52.65 ± 0.08
945.9 kPa | 53.68 ± 0.08
964.1 kPa | 54.95 ± 0.08
981.4 kPa | 56.09 ± 0.08
999 kPa | 57.2 ± 0.09
1004 kPa | 57.55 ± 0.09
1037.2 kPa | 59.89 ± 0.09
1056.7 kPa | 61.12 ± 0.09
1079.5 kPa | 62.72 ± 0.09
1113.6 kPa | 65.06 ± 0.1
1151.3 kPa | 67.79 ± 0.1
1177.8 kPa | 69.69 ± 0.1
1204.6 kPa | 71.61 ± 0.1
1231.5 kPa | 73.4 ± 0.11
1251 kPa | 74.95 ± 0.11
1277.5 kPa | 76.93 ± 0.11
1297.2 kPa | 78.23 ± 0.11
1318.3 kPa | 79.8 ± 0.12
1351 kPa | 82.19 ± 0.12
1384.5 kPa | 84.6 ± 0.12
1419.6 kPa | 87.38 ± 0.13
1453.8 kPa | 89.96 ± 0.13
1487.2 kPa | 92.64 ± 0.14
1522.4 kPa | 95.5 ± 0.14
1557 kPa | 98.35 ± 0.14
1592 kPa | 101.11 ± 0.15
1624.7 kPa | 103.88 ± 0.15
1659.3 kPa | 106.85 ± 0.16
1677.7 kPa | 108.37 ± 0.16
1712.3 kPa | 111.38 ± 0.16
1748.1 kPa | 114.59 ± 0.17
1780.9 kPa | 117.54 ± 0.17
1815.7 kPa | 120.8 ± 0.18
1848.2 kPa | 123.82 ± 0.18
1883.1 kPa | 127.18 ± 0.19
1916.7 kPa | 130.47 ± 0.2

— the NIST ThermoML archive (doi:10.1021/je900596d)
